Tests used:
Chenopodium album = assay: greenhouse post-emergence herbicidal test, lambsquarters; type: in vivo; details: 2 to 4 weeks; for post-emergence action against lambsquarters: application rate 1.0 kg/ha a.s.; for post-emergence control of lambsquarters: application rate 0.5 kg/ha a.s.
Description: (§1) The seeds of the test plants were sown separately for each species. For the post-emergence treatment, the test plants were first grown to a height of 3 to 15 cm, depending on the plant habit, and only then treated with the active ingredients which had been suspended or emulsified in water. For this purpose, the test plants were either sown directly and grown in the same containers, or they were first grown separately as seedlings and transplanted into the test containers a few days prior to treatment. The rate of application for the post-emergence treatment was 1.0 or 0.5 kg/ha of a.s. (active substance). Depending on the species, the plants were kept at 10-25° C. or 20-35° C. The test period extended over 2 to 4 weeks. During this time, the plants were tended, and their response to the individual treatments was evaluated. Evaluation was carried out using a scale from 0 to 100.100 means no emergence of the plants, or complete destruction of at least the aerial parts, and 0 means no damage, or normal course of growth. The plants used in the greenhouse experiments belonged to the following species: [table]

Amaranthus retroflexus = assay: greenhouse post-emergence herbicidal test, pig weed; type: in vivo; details: 2 to 4 weeks; for post-emergence action against pig weed: application rate 1.0 kg/ha a.s.; for post-emergence control of pig weed: application rate 0.5 kg/ha a.s.
Description: as §1

Setaria viridis = assay: greenhouse post-emergence herbicidal test, green foxtail; type: in vivo; details: 2 to 4 weeks; for post-emergence action against green foxtail: application rate 1.0 kg/ha a.s.; for post-emergence control of green foxtail: application rate 0.5 kg/ha a.s.
Description: as §1

| Structure (SMILES) | post-emergence action against lambsquarters (Chenopodium album) | post-emergence action against pig weed (Amaranthus retroflexus) | post-emergence action against green foxtail (Setaria viridis) | post-emergence control of lambsquarters (Chenopodium album) | post-emergence control of pig weed (Amaranthus retroflexus) | post-emergence control of green foxtail (Setaria viridis) | melting point |
| --- | --- | --- | --- | --- | --- | --- | --- |
| CNC(=O)C(NC(=O)c1cn(C)nc1C(F)(F)F)C(O)c1ccn(C)n1 (racemic) [Compound 3.33] | very good | very good | very good |  |  |  |  |
| CNC(=O)C(NC(=O)c1cn(C)nc1C(F)(F)F)C(OC(C)=O)c1ccn[nH]1 (mixture of isomers) [Compound 3.19] |  |  |  | very good | very good | very good |  |
| CNC(=O)C(NC(=O)c1cn(C)nc1C(F)(F)F)C(O)c1cccs1 (mixture of isomers) [Compound 3.5] | very good | very good | very good |  |  |  |  |
| CNC(=O)C(NC(=O)c1cn(C)nc1C(F)(F)F)C(O)c1ccccn1 (racemic) [Compound 3.1] | very good | very good | very good |  |  |  |  |
| CNC(=O)C(NC(=O)c1cn(C)nc1C(F)(F)F)C(O)c1ccn[nH]1 (mixture of isomers) [Compound 3.17] | very good | very good | very good |  |  |  |  |
| CNC(=O)C(NC(=O)c1cn(C)nc1C(F)(F)F)C(O)c1nccs1 (mixture of isomers) [Compound 3.51] | very good | very good | very good |  |  |  |  |
| CNC(=O)C(NC(=O)c1cn(C)nc1C(F)(F)F)C(OC(C)=O)c1nccs1 (mixture of isomers) [Compound 3.54] |  |  |  | very good | very good | very good |  |
| CNC(=O)C(NC(=O)c1cscc1C(F)(F)F)C(O)c1cnc2ccccc2c1 (racemic) [Compound 3.15, rac-erythro-N-(2-hydroxy-1-methylcarbamoyl-2-quinolin-3-ylethyl)-4-trifluoromethyl-thiophene-3-carboxamide] |  |  |  |  |  |  | 206 °C |
| CNC(=O)C(NC(=O)c1cn(C)nc1C(F)(F)F)C(O)c1nccs1 (mixture of isomers) [Compound 3.52] | very good | very good | very good |  |  |  |  |
| CNC(=O)C(NC(=O)c1cn(C)nc1C(F)(F)F)C(O)c1cccc(C)n1 (racemic) [Compound 3.2] |  |  |  | very good | very good | very good |  |
| CNC(=O)C(NC(=O)c1cn(C)nc1C(F)(F)F)C(OC(=O)N(C)C)c1nccs1 (mixture of isomers) [Compound 3.59] | very good | very good | very good |  |  |  |  |
| CNC(=O)C(NC(=O)c1cn(C)nc1C(F)(F)F)C(OC(=O)N(C)C)c1cccs1 (mixture of isomers) [Compound 3.6] |  |  |  | very good | very good | very good |  |
| CNC(=O)C(NC(=O)c1cn(C)nc1C(F)(F)F)C(OC(=O)N(C)C)c1nccs1 (mixture of isomers) [Compound 3.57] | very good | very good | very good |  |  |  |  |

Source: patent US20070270312A1, “Heteroaroyl-Substituted Serineamides” (priority 2004, published 2007)
